The experiment concerns the target T1, RXFP1 (Homo sapiens, UniProt Q9HBX9).
T1 construct: OVCAR5 cells expressing endogenous RXFP1; endogenous in cells; host or cells: OVCAR5 cells
T1 sequence (Q9HBX9 1-757): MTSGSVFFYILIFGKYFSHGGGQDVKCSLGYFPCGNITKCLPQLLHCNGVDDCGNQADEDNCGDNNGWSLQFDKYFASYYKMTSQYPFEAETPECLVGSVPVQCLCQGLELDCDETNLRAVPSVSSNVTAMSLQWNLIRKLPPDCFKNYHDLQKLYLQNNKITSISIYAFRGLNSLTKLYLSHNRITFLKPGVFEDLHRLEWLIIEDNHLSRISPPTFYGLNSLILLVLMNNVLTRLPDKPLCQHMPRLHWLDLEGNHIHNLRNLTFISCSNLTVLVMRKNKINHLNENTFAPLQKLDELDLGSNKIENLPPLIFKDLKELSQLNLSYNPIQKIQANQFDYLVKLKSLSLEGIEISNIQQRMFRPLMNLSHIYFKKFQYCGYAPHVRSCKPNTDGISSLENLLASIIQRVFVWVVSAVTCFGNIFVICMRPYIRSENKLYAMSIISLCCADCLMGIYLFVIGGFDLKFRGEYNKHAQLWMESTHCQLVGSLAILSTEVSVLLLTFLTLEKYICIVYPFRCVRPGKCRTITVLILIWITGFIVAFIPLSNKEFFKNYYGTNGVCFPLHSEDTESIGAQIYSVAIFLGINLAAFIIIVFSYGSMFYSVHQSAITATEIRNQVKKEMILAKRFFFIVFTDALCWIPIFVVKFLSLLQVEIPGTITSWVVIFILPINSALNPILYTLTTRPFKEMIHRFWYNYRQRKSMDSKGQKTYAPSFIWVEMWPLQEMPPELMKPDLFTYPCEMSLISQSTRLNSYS
Briefly: OVCAR5 cAMP assay (HTRF), RXFP1 agonist activity. Type of experiment: cell-based. To be noted: for Emax: OVCAR-5, maximal cAMP relative to H2-relaxin maximum (100%), read-out: EMax, OVCAR 5 cells (cAMP); for EC50: OVCAR5 cells, cAMP HTRF, read-out: EC50 (nM), OVCAR 5 cells (cAMP). The gist of the method:
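OVCAR5 cells (endogenous RXFP1) pretreated 40 min at 37° C with 1 mM IBMX, then exposed to peptides in serum-free medium for 30 min at 37° C. Lysate cAMP read by HTRF; EC50 from variable-slope sigmoidal fit; Emax as % of H2-relaxin maximal cAMP in same run.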
A general note: cAMP levels reflect the balance of adenylyl cyclase and phosphodiesterase activity.

*1 amine or outer side, *2 acyl side, *3 side chain or, on linkers, in order; H or OH if unused. Where a SMILES comes first, the peptide text is derived from it. Side-chain parts run from the residue outwards. [ ]: non-standard residue; d: D form. The star is where a group is joined. PEG12 = NCCOCCOCCOCCOCCOCCOCCOCCOCCOCCOCCOCCOCCC(=O)O; γGlu = O=C(O)[C@H](CCC(=O)[*:2])N[*:1]; 1Nal = N[C@@H](Cc1cccc2ccccc12)C(=O)O; Pentadecanoyl = CCCCCCCCCCCCCCC(=O)*; Stearoyl = CCCCCCCCCCCCCCCCCC(=O)*; Palmitoyl = CCCCCCCCCCCCCCCC(=O)*; αMeF = C[C@](N)(Cc1ccccc1)C(=O)O; Cit = NC(=O)NCCC[C@H](N)C(=O)O; αMeK = C[C@](N)(CCCCN)C(=O)O; Nle = CCCC[C@H](N)C(=O)O; AEEA = NCCOCCOCC(=O)O; Aib = CC(C)(N)C(=O)O

Among the data in patent publication US10988523B2, “Modified lipidated Relaxin B chain peptides and their therapeutic use” (Sanofi, priority 2018, dated 2021) are Emax and EC50 values, retold here.

On to `CCCCCCCCCCCCCCCC(=O)N[C@@H](CCC(=O)NCCCC[C@H](NC(=O)CC[C@H](NC(=O)CC[C@H](NC(=O)CC[C@H](NC(=O)COCCOCCNC(=O)COCCOCCNC(=O)COCCOCCNC(=O)COCCOCCNC(=O)[C@H](CCCCNC(C)=O)NC(=O)[C@H](CCCCN)NC(=O)[C@H](CCCNC(=N)N)NC(=O)[C@](C)(CCCCN)NC(=O)[C@H](CO)NC(=O)[C@](C)(Cc1ccccc1)NC(=O)[C@@H](NC(=O)[C@H](CO)NC(=O)[C@H](CCCC)NC(=O)CNC(=O)[C@H](CCC(=O)O)NC(=O)C(C)(C)NC(=O)C(C)(C)NC(=O)[C@@H](NC(=O)[C@H](CCCCNC(C)=O)NC(=O)[C@H](C)NC(=O)[C@H](CCCNC(=N)N)NC(=O)[C@@H](NC(=O)[C@H](CCCCN)NC(=O)[C@H](CCC(=O)O)NC(=O)[C@H](CCCNC(=N)N)NC(=O)CNC(=O)[C@H](CCC(=O)O)NC(=O)[C@H](CC(C)C)NC(C)=O)C(C)C)[C@@H](C)CC)[C@@H](C)O)C(=O)O)C(=O)O)C(=O)O)C(N)=O)C(=O)O` [compound 152] (Ac-LEGREKVRAK(Ac)I[Aib][Aib]EG[Nle]ST[αMeF]S[αMeK]RKK(Ac)[AEEA][AEEA][AEEA][AEEA][γGlu][γGlu][γGlu]K([γGlu-Palmitoyl])-NH2), for which the Emax – broadly, the greatest response seen or fitted, relative to the assay's reference – came out at 91%.

As for `CCCCCCCCCCCCCCCC(=O)N[C@@H](CCC(=O)N[C@@H](CCC(=O)N[C@@H](CCC(=O)NCCCC[C@H](NC(=O)CCOCCOCCOCCOCCOCCOCCOCCOCCOCCOCCOCCOCCNC(=O)[C@H](CCCCNC(C)=O)NC(=O)[C@H](CCCCN)NC(=O)[C@H](CCCNC(=N)N)NC(=O)C(C)(C)NC(=O)[C@H](CO)NC(=O)[C@H](Cc1c[nH]c2ccccc12)NC(=O)[C@@H](NC(=O)[C@H](CO)NC(=O)[C@H](CCCC)NC(=O)CNC(=O)[C@H](CCC(=O)O)NC(=O)C(C)(C)NC(=O)C(C)(C)NC(=O)[C@@H](NC(=O)[C@H](CCC(N)=O)NC(=O)C(C)(C)NC(=O)[C@H](CCCNC(=N)N)NC(=O)[C@@H](NC(=O)[C@H](CCCCN)NC(=O)[C@H](CCC(=O)O)NC(=O)[C@H](CCCNC(=N)N)NC(=O)CNC(=O)[C@H](CCC(=O)O)NC(=O)[C@H](CC(C)C)NC(C)=O)C(C)C)[C@@H](C)CC)[C@@H](C)O)C(N)=O)C(=O)O)C(=O)O)C(=O)O` [compound 28] (Ac-LEGREKVR[Aib]QI[Aib][Aib]EG[Nle]STWS[Aib]RKK(Ac)[PEG12]K([γGlu-γGlu-γGlu-Palmitoyl])-NH2), the Emax came to 78%.

Take `CCCCCCCCCCCCCCCCCC(=O)N[C@@H](CCC(=O)N[C@@H](CCC(=O)N[C@@H](CCC(=O)NCCOCCOCC(=O)NCCOCCOCC(=O)NCCOCCOCC(=O)NCCCC[C@H](NC(=O)[C@H](CCCCN)NC(=O)[C@H](CCCNC(=N)N)NC(=O)C(C)(C)NC(=O)[C@H](CO)NC(=O)[C@H](Cc1cccc2ccccc12)NC(=O)[C@@H](NC(=O)[C@H](CO)NC(=O)[C@H](CCCC)NC(=O)CNC(=O)[C@H](CCC(=O)O)NC(=O)C(C)(C)NC(=O)C(C)(C)NC(=O)[C@@H](NC(=O)[C@H](CCCCNC(C)=O)NC(=O)[C@H](C)NC(=O)[C@H](CCCNC(=N)N)NC(=O)[C@@H](NC(=O)[C@H](CCCCN)NC(=O)[C@H](CCC(=O)O)NC(=O)[C@H](CCCNC(=N)N)NC(=O)CNC(=O)[C@H](CCC(=O)O)NC(=O)[C@H](CC(C)C)NC(C)=O)C(C)C)[C@@H](C)CC)[C@@H](C)O)C(N)=O)C(=O)O)C(=O)O)C(=O)O` [compound 79] (Ac-LEGREKVRAK(Ac)I[Aib][Aib]EG[Nle]ST[1Nal]S[Aib]RKK([AEEA-AEEA-AEEA-γGlu-γGlu-γGlu-Stearoyl])-NH2): the EC50 – broadly, the concentration that produces a half-maximal response – was found to be 0.4 nM and the Emax came to 75%.

As for `CCCCCCCCCCCCCCC(=O)N[C@@H](CCC(=O)N[C@@H](CCC(=O)NCCCC[C@H](NC(=O)CC[C@H](NC(=O)CC[C@H](NC(=O)COCCOCCNC(=O)COCCOCCNC(=O)COCCOCCNC(=O)COCCOCCNC(=O)[C@H](CCCCNC(C)=O)NC(=O)[C@H](C)NC(=O)[C@H](CCCNC(=N)N)NC(=O)[C@](C)(CCCCN)NC(=O)[C@H](CO)NC(=O)[C@H](Cc1ccccc1)NC(=O)[C@@H](NC(=O)[C@H](CO)NC(=O)[C@H](CCCC)NC(=O)CNC(=O)[C@H](CCC(=O)O)NC(=O)C(C)(C)NC(=O)C(C)(C)NC(=O)[C@@H](NC(=O)[C@H](CCCCNC(C)=O)NC(=O)[C@H](C)NC(=O)[C@H](CCCNC(=N)N)NC(=O)[C@@H](NC(=O)[C@H](CCCCN)NC(=O)[C@H](CCC(=O)O)NC(=O)[C@H](CCCNC(=N)N)NC(=O)CNC(=O)[C@H](CCC(=O)O)NC(=O)[C@H](CC(C)C)NC(C)=O)C(C)C)[C@@H](C)CC)[C@@H](C)O)C(=O)O)C(=O)O)C(N)=O)C(=O)O)C(=O)O` [compound 168] (Ac-LEGREKVRAK(Ac)I[Aib][Aib]EG[Nle]STFS[αMeK]RAK(Ac)[AEEA][AEEA][AEEA][AEEA][γGlu][γGlu]K([γGlu-γGlu-Pentadecanoyl])-NH2), the EC50 was determined as 0.06 nM and the Emax was 91%.

Take `CCCCCCCCCCCCCCCCCC(=O)N[C@@H](CCC(=O)N[C@@H](CCC(=O)N[C@@H](CCC(=O)NCCOCCOCC(=O)NCCOCCOCC(=O)NCCOCCOCC(=O)NCCCC[C@H](NC(=O)[C@H](CCCCN)NC(=O)[C@H](CCCCN)NC(=O)[C@H](CCCNC(=N)N)NC(=O)C(C)(C)NC(=O)[C@@H](NC(=O)[C@H](Cc1c[nH]c2ccccc12)NC(=O)[C@@H](NC(=O)[C@H](CO)NC(=O)[C@H](CCCC)NC(=O)CNC(=O)[C@H](CCC(=O)O)NC(=O)C(C)(C)NC(=O)C(C)(C)NC(=O)[C@@H](NC(=O)[C@H](CCC(N)=O)NC(=O)[C@H](C)NC(=O)[C@H](CCCNC(=N)N)NC(=O)[C@@H](NC(=O)[C@H](CCCCN)NC(=O)[C@H](CCC(=O)O)NC(=O)[C@H](CCCNC(=N)N)NC(=O)CNC(=O)[C@H](CCC(=O)O)NC(=O)[C@H](CC(C)C)NC(C)=O)C(C)C)[C@@H](C)CC)[C@@H](C)O)[C@@H](C)O)C(N)=O)C(=O)O)C(=O)O)C(=O)O` [compound 76] (Ac-LEGREKVRAQI[Aib][Aib]EG[Nle]STWT[Aib]RKKK([AEEA-AEEA-AEEA-γGlu-γGlu-γGlu-Stearoyl])-NH2): the Emax was 89%.

Consider `CCCCCCCCCCCCCCCCCC(=O)N[C@@H](CCC(=O)N[C@@H](CCC(=O)N[C@@H](CCC(=O)NCCOCCOCC(=O)NCCOCCOCC(=O)NCCOCCOCC(=O)NCCCC[C@H](NC(=O)[C@H](CCCCNC(C)=O)NC(=O)[C@H](C)NC(=O)[C@H](CCCNC(N)=O)NC(=O)C(C)(C)NC(=O)[C@H](CO)NC(=O)[C@H](Cc1c[nH]c2ccccc12)NC(=O)[C@@H](NC(=O)[C@H](CO)NC(=O)[C@H](CCCC)NC(=O)CNC(=O)[C@H](CCC(=O)O)NC(=O)C(C)(C)NC(=O)C(C)(C)NC(=O)[C@@H](NC(=O)[C@H](CCCCNC(C)=O)NC(=O)[C@H](C)NC(=O)[C@H](CCCNC(=N)N)NC(=O)[C@@H](NC(=O)[C@H](CCCCN)NC(=O)[C@H](CCC(=O)O)NC(=O)[C@H](CCCNC(=N)N)NC(=O)CNC(=O)[C@H](CCC(=O)O)NC(=O)[C@H](CC(C)C)NC(C)=O)C(C)C)[C@@H](C)CC)[C@@H](C)O)C(N)=O)C(=O)O)C(=O)O)C(=O)O` [compound 126] (Ac-LEGREKVRAK(Ac)I[Aib][Aib]EG[Nle]STWS[Aib][Cit]AK(Ac)K([AEEA-AEEA-AEEA-γGlu-γGlu-γGlu-Stearoyl])-NH2), for which the Emax is 91%.
